pIC50: −log10 of the molar value.

Usually pIC50 stands for −log10 of the IC50, conventionally taken in molar units.

The experiment deals with SARS-CoV-2. As to the kind of experiment: microbe, parasite or virus in culture. As to conditions: Severe acute respiratory syndrome coronavirus 2, Vero C1008, 48 h; for IC50: read-out: pIC50 (converted).

For the compound `NC(=O)N1c2ccccc2CC(=O)c2ccccc21` [OXCARBAZEPINE], the pIC50 is less than 4.70 and the IC50 was more than 20 µM.

As to `CN1C(=O)C(NC(=O)c2cc3ccccc3[nH]2)N=C(c2ccccc2)c2ccccc21` (configuration not stated), the pIC50 is less than 4.70 and the IC50 was more than 20 µM.

Consider `CO[C@@]1(NC(=O)CSCC#N)C(=O)N2C(C(=O)O)=C(CSc3nnnn3C)CS[C@@H]21` [CEFMETAZOLE], for which the pIC50 is less than 4.70 and the IC50 is more than 20 µM.

In the case of `CCN1C[C@]2(COC)CC[C@H](OC)[C@]34[C@@H]5C[C@H]6[C@H](OC)[C@@H]5[C@@]5(C[C@@H]6OC)OCO[C@@]5([C@H]13)[C@@H](O)[C@H]24`, the pIC50 was less than 4.70 and the IC50 was more than 20 µM.

`COCC(=O)Nc1c(I)c(C(=O)NCC(O)CO)c(I)c(C(=O)N(C)CC(O)CO)c1I` (configuration not stated) [IOPROMIDE]: the pIC50 is less than 4.70 and the IC50 is more than 20 µM.

On to `CN1CCC(=C2c3ccccc3Oc3ncccc32)CC1` [AZANATOR], for which the pIC50 is less than 4.70 and the IC50 was more than 20 µM.

On to `NC[C@@H]1OB(O)c2c(OCCCO)cccc21`, for which the pIC50 is less than 4.70 and the IC50 is more than 20 µM.

Turning to `O=C1C(O)=C([C@H]2CC[C@H](c3ccc(Cl)cc3)CC2)C(=O)c2ccccc21` [ATOVAQUONE], the pIC50 was less than 4.70 and the IC50 was more than 20 µM.

Regarding `Cc1c(Cl)cccc1Nc1ncccc1C(=O)OCC(O)CO` (configuration not stated) [CLONIXERIL], the pIC50 was less than 4.70 and the IC50 was more than 20 µM.

Consider `CN1CCC(=C2c3ccccc3CC(=O)c3sccc32)CC1` [KETOTIFEN], for which the pIC50 was less than 4.70 and the IC50 was more than 20 µM.

Consider `CC(C)NCCCC1(C(N)=O)c2ccccc2-c2ccccc21` [INDECAINIDE], for which the pIC50 was less than 4.70 and the IC50 was more than 20 µM.

In the case of `COCc1cccc(C[C@H](O)/C=C/[C@H]2[C@H](O)CC(=O)[C@@H]2CCSCCCC(=O)OC)c1` [RIVENPROST], the pIC50 was less than 4.70 and the IC50 is more than 20 µM.

With `O=c1c2ccccc2[se]n1-c1ccccc1` [EBSELEN], the pIC50 is less than 4.70 and the IC50 is more than 20 µM.

`Oc1ccc2ccccc2c1` [BETANAPHTHOL]: the pIC50 is less than 4.70 and the IC50 was more than 20 µM.

For the compound `CCC(C)C1OC2(CCC1C)CC1CC(C/C=C(/C)C(OC3CC(OC)C(OC4CC(OC)C(O)C(C)O4)C(C)O3)C(C)/C=C\C=C3\COC4C(O)C(C)=CC(C(=O)O1)C34O)O2` (configuration not stated), the pIC50 is less than 4.70 and the IC50 is more than 20 µM.

As to `Cc1nccn1Cc1cc(-c2ccc(F)c(C(F)F)c2)cnn1` [EVT-101 FREE BASE], the pIC50 is less than 4.70 and the IC50 was more than 20 µM.

Take `CNC(=O)[C@H]1O[C@@H](n2cnc3c(NCc4cccc(I)c4)ncnc32)[C@H](O)[C@@H]1O` [IB-MECA]: the pIC50 was less than 4.70 and the IC50 is more than 20 µM.

Consider `CCOC(=O)C1=C(CN2CCOCC2)NC(c2nccs2)=N[C@H]1c1ccc(F)cc1Br`, for which the pIC50 was less than 4.70 and the IC50 was more than 20 µM.

Take `CC[C@@](C)(Nc1ccnc(-c2c[nH]c3ncccc23)n1)C(=O)NCC(F)(F)F` [DECERNOTINIB]: the pIC50 is less than 4.70 and the IC50 was more than 20 µM.

In the case of `O=C1C[C@@H]2OCC=C3CN4CC[C@]56c7ccccc7N1[C@H]5[C@H]2[C@H]3C[C@H]46` [STRYCHNINE], the pIC50 was less than 4.70 and the IC50 is more than 20 µM.

For the compound `[N-]=[N+]=N[C@]1(CO)O[C@@H](n2ccc(N)nc2=O)[C@@H](O)[C@@H]1O`, the pIC50 is less than 4.70 and the IC50 is more than 20 µM.

`C[C@H](N[C@@H](CCc1ccccc1)C(=O)O)C(=O)N1Cc2ccccc2C[C@H]1C(=O)O`: the pIC50 is less than 4.70 and the IC50 is more than 20 µM.

For the compound `O=c1ccc2cc(O[C@@H]3O[C@H](CO)[C@@H](O)[C@H](O)[C@H]3O)c(O)cc2o1` [ESCULIN], the pIC50 was less than 4.70 and the IC50 was more than 20 µM.

In the case of `CN1CC(=O)NC1=N` [CREATININE], the pIC50 was less than 4.70 and the IC50 is more than 20 µM.

On to `c1cnc2c(c1)CC1(CN3CCC1CC3)O2` (configuration not stated), for which the pIC50 was less than 4.70 and the IC50 was more than 20 µM.

For `CCCN1CCC(c2cccc(S(C)(=O)=O)c2)CC1` [PRIDOPIDINE], the pIC50 is less than 4.70 and the IC50 was more than 20 µM.

For the compound `O=C(O)C1(C(=O)O)CCC1`, the pIC50 was less than 4.70 and the IC50 is more than 20 µM.

As for `COc1ccc2c3c1O[C@H]1C(=O)CC[C@H]4[C@@H](C2)N(C)CC[C@]314` [HYDROCODONE], the pIC50 is less than 4.70 and the IC50 was more than 20 µM.

Regarding `COC(=O)OCOc1c2n(ccc1=O)N([C@@H]1c3ccccc3SCc3c1ccc(F)c3F)[C@@H]1COCCN1C2=O` [BALOXAVIR MARBOXIL], the pIC50 was less than 4.70 and the IC50 was more than 20 µM.

With `O=S(=O)(O)c1ccc2[nH]c(-c3ccccc3)nc2c1` [ENSULIZOLE], the pIC50 was less than 4.70 and the IC50 is more than 20 µM.

With `C=C1/C(=C\C=C2/CCC[C@]3(C)[C@@H]([C@H](C)/C=C/[C@@H](O)C4CC4)CC[C@@H]23)C[C@@H](O)C[C@@H]1O` [CALCIPOTRIENE], the pIC50 is less than 4.70 and the IC50 was more than 20 µM.

On to `C[C@H]1C(O)O[C@@H]2O[C@@]3(C)CC[C@H]4[C@H](C)CCC1[C@@]24OO3` (some centres not stated), for which the pIC50 was less than 4.70 and the IC50 is more than 20 µM.

For the compound `O=C(O)CO` [GLYCOLIC ACID], the pIC50 is less than 4.70 and the IC50 was more than 20 µM.

As to `COc1ccc2c3c1OC1C(O)CCC4C(C2)N(C)CCC341` (configuration not stated), the pIC50 was less than 4.70 and the IC50 was more than 20 µM.

Regarding `CC(=O)OC1(c2ccccc2)CCN(CCc2ccccc2)CC1`, the pIC50 is less than 4.70 and the IC50 is more than 20 µM.

`CC(C)(C)NCC(O)COc1ccccc1C#N` (configuration not stated) [BUNITROLOL]: the pIC50 is less than 4.70 and the IC50 is more than 20 µM.

With `N#CCC(=O)NN` [CYACETACIDE], the negative-log IC50 (pIC50) was less than 4.70 and the IC50 was more than 20 µM.

`Cc1ccc(-c2nc3ccc(C)cn3c2CC(=O)N(C)C)cc1` [ZOLPIDEM]: the pIC50 is less than 4.70 and the IC50 was more than 20 µM.

In the case of `O=C(/C=C/c1ccccc1)c1ccc(O)cc1O` [2',4'-DIHYDROXYCHALCONE], the pIC50 is less than 4.70 and the IC50 was more than 20 µM.

For the compound `CNc1ccc(/C=C/c2ccc(OCCOCCOCCF)nc2)cc1` [FLORBETAPIR], the pIC50 was less than 4.70 and the IC50 was more than 20 µM.

For `O=C1NCCN1CCN1CCN([C@@H]2C[C@@H](c3ccc(F)cc3)c3ccccc32)CC1` [IRINDALONE], the pIC50 is less than 4.70 and the IC50 was more than 20 µM.

Consider `COc1ccc2c(c1OC)C(=O)O[C@H]2[C@@H]1c2c(cc3c(c2OC)OCO3)CCN1C`, for which the pIC50 was less than 4.70 and the IC50 was more than 20 µM.

Consider `COc1ccccc1N1CCN(CC(O)COc2cccc3ccccc23)CC1` (configuration not stated) [NAFTOPIDIL], for which the pIC50 was less than 4.70 and the IC50 was more than 20 µM.

In the case of `CN[C@@H]1CC[C@@H](c2ccccc2)c2ccccc21` [TAMETRALINE], the pIC50 was less than 4.70 and the IC50 was more than 20 µM.

Consider `CO/N=C(\C(=O)N[C@@H]1C(=O)N2C(C(=O)O)=C(COC(N)=O)CS[C@H]12)c1ccco1` [CEFUROXIME], for which the pIC50 was less than 4.70 and the IC50 is more than 20 µM.

As to `COC1=C(O)C(=O)c2c(cc3oc(C(C)=O)c(O)c3c2O)C1=O` [RHODOCLADONIC ACID], the pIC50 was less than 4.70 and the IC50 is more than 20 µM.

`O=C(N/N=C/c1ccccc1O)c1ccncc1` [SALINAZID]: the pIC50 was less than 4.70 and the IC50 is more than 20 µM.

For `O=c1c2cc(O)c(O)cc2oc2cc(O)c([C@@H]3O[C@H](CO)[C@@H](O)[C@H](O)[C@H]3O)c(O)c12` [MANGIFERIN], the pIC50 is less than 4.70 and the IC50 is more than 20 µM.

For the compound `CC(C)(C)C(=O)Oc1ccc2c(c1)O[C@@H](c1ccc(OCCN3CCCCC3)cc1)C1=C2COc2cc(OC(=O)C(C)(C)C)ccc21`, the pIC50 was less than 4.70 and the IC50 is more than 20 µM.

With `N[C@@H]1CC[C@@H](c2ccc(Cl)c(Cl)c2)c2ccccc21` [DASOTRALINE], the pIC50 was less than 4.70 and the IC50 was more than 20 µM.

`NCCC(=O)NCCc1c[nH]cn1` [CARCININE]: the pIC50 is less than 4.70 and the IC50 was more than 20 µM.

In the case of `COc1cc(C(=O)O)ccc1NC(=O)[C@@H]1N[C@@H](CC(C)(C)C)[C@](C#N)(c2ccc(Cl)cc2F)[C@H]1c1cccc(Cl)c1F` [IDASANUTLIN], the pIC50 is less than 4.70 and the IC50 was more than 20 µM.

Turning to `c1ccc2[nH]c(-c3cscn3)nc2c1` [THIABENDAZOLE], the pIC50 was less than 4.70 and the IC50 was more than 20 µM.

In the case of `CC(C)NC(=N)NC(=N)Nc1ccc(Cl)cc1` [PROGUANIL], the pIC50 is less than 4.70 and the IC50 was more than 20 µM.

Take `CC(C)c1ccc2c(c1)c(SC(C)(C)C)c(CC(C)(C)C(=O)O)n2Cc1ccc(Cl)cc1`: the negative-log IC50 (pIC50) is less than 4.70 and the IC50 was more than 20 µM.

On to `O=C(NCC(O)CO)c1c(I)c(C(=O)NCC(O)CO)c(I)c(N(CCO)C(=O)CO)c1I` (configuration not stated) [IOVERSOL], for which the negative logarithm of the IC50 (pIC50) was less than 4.70 and the IC50 was more than 20 µM.

As for `O=C(NC[C@H](O)CO)c1ccncc1Nc1ccc(I)cc1F` [PIMASERTIB], the pIC50 is less than 4.70 and the IC50 is more than 20 µM.

Consider `C[C@]12CC[C@@H]3c4ccc(O)cc4CC[C@H]3[C@@H]1CC[C@@H]2OC(=O)CCC1CCCC1` [ESTRADIOL CYPIONATE], for which the pIC50 is less than 4.70 and the IC50 was more than 20 µM.

Consider `C[C@]12C[C@H](O)[C@H]3[C@@H](CCC4=CC(=O)CC[C@@]43C)[C@@H]1CC[C@@H]2C(=O)CO` [CORTICOSTERONE], for which the pIC50 is less than 4.70 and the IC50 was more than 20 µM.

For the compound `CC(=O)C12OC(C)(C)OC1CC1C3CCC4=CC(=O)CCC4(C)C3CCC12C` (configuration not stated), the pIC50 was less than 4.70 and the IC50 is more than 20 µM.

Take `O=C(CC(c1ccccc1)c1ccccc1)N1CCN(C(c2ccccc2)c2ccccc2)CC1` [Z160]: the pIC50 was less than 4.70 and the IC50 was more than 20 µM.

Values taken from ChEMBL document CHEMBL4651402, “Screening of ~5500 FDA-approved drugs and clinical candidates for anti-SARS-CoV-2 activity” (2021).
